Reference: US10670605B2, “Cysteine reactive probes and uses thereof” (The Scripps Research Institute, priority 2015, dated 2020)
One block for each compound: values may come before it.

Key:
Assay in all cases: Competitive isoTOP-ABPP in situ (fragment-treated cells)
Assay type in all cases: cell-based
[1] = target: cysteines in MDA-MB-231 and Ramos cells (Homo sapiens, UniProt Q8WUM4); details: cysteine Q8WUM4_C90; fragment 200 μM, in situ, 231 (MDA-MB-231) cells
[2] = target: cysteines in MDA-MB-231 and Ramos cells (Homo sapiens, UniProt Q8IV53); details: 200 μM, insitu, ramos
Chain of cysteines in MDA-MB-231 and Ramos cells (Homo sapiens, UniProt Q8IV53) (Q8IV53 whole entry): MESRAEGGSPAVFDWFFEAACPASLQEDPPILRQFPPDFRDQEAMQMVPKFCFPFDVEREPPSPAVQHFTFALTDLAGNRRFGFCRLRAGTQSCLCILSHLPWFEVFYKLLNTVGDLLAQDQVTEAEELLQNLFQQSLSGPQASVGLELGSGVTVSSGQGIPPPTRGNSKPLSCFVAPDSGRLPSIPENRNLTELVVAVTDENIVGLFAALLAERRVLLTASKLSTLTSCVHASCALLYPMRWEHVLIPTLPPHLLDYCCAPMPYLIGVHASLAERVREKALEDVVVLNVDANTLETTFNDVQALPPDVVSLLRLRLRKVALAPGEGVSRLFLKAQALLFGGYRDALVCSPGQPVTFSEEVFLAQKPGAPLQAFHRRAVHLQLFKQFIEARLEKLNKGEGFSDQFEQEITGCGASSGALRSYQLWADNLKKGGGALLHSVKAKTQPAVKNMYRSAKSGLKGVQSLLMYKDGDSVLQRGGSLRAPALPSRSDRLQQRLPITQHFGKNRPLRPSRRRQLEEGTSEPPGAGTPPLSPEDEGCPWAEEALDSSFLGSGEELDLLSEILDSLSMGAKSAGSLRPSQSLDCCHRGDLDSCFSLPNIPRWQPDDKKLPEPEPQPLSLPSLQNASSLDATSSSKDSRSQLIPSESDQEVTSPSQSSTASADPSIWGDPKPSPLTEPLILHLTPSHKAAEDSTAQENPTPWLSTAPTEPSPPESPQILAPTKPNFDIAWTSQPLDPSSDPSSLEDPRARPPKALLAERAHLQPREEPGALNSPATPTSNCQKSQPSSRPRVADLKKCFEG

[3] = target: cysteines in MDA-MB-231 and Ramos cells (Homo sapiens, UniProt Q13867); details: 200 μM, insitu, 231
Chain of cysteines in MDA-MB-231 and Ramos cells (Homo sapiens, UniProt Q13867) (Q13867 whole entry): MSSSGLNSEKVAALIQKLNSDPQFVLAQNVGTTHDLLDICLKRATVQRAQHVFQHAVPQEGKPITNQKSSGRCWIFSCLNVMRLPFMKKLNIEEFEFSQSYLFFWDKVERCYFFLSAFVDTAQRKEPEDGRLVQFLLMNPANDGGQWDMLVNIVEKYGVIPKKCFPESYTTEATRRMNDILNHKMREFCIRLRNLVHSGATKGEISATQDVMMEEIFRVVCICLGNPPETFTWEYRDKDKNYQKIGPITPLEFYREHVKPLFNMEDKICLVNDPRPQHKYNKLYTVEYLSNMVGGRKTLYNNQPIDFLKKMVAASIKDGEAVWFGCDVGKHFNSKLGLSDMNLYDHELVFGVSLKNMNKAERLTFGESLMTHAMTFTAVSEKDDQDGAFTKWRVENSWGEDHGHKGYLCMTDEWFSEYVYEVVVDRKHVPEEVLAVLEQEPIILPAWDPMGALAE

[4] = target: cysteines in MDA-MB-231 and Ramos cells (Homo sapiens, UniProt Q86UV5); details: 200 μM, insitu, ramos
Chain of cysteines in MDA-MB-231 and Ramos cells (Homo sapiens, UniProt Q86UV5) (Q86UV5 whole entry, the tested form may be a part): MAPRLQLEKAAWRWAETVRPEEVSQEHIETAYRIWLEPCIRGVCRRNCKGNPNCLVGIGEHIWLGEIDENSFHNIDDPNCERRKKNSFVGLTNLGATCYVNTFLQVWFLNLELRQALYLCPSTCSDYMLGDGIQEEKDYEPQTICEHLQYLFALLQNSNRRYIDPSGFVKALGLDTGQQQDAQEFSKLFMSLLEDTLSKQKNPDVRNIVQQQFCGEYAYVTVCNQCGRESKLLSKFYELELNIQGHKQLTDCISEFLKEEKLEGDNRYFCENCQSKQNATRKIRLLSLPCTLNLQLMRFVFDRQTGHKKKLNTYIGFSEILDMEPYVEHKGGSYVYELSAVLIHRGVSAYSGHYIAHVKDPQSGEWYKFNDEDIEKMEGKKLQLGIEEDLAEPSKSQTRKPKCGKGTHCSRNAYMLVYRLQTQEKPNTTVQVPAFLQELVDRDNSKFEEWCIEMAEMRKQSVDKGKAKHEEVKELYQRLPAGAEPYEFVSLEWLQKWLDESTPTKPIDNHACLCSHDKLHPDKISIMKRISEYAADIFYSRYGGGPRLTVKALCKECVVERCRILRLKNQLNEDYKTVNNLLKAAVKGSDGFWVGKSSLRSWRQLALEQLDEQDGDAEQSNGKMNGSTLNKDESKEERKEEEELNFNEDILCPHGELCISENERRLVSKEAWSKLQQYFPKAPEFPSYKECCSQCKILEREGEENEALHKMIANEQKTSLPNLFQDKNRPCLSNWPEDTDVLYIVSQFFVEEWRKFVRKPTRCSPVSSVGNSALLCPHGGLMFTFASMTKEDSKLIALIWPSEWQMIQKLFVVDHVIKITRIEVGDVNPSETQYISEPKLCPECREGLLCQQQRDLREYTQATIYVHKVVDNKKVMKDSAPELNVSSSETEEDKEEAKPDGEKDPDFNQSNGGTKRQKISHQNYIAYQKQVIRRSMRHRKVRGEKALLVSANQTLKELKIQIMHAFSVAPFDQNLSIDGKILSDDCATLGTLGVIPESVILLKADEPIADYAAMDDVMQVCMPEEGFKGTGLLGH

[5] = target: cysteines in MDA-MB-231 and Ramos cells (Homo sapiens, UniProt Q96IV0); details: cysteine Q96IV0_C309; fragment 200 μM, in situ, ramos cells
Chain of cysteines in MDA-MB-231 and Ramos cells (Homo sapiens, UniProt Q96IV0) (Q96IV0 whole entry, the tested form may be a part): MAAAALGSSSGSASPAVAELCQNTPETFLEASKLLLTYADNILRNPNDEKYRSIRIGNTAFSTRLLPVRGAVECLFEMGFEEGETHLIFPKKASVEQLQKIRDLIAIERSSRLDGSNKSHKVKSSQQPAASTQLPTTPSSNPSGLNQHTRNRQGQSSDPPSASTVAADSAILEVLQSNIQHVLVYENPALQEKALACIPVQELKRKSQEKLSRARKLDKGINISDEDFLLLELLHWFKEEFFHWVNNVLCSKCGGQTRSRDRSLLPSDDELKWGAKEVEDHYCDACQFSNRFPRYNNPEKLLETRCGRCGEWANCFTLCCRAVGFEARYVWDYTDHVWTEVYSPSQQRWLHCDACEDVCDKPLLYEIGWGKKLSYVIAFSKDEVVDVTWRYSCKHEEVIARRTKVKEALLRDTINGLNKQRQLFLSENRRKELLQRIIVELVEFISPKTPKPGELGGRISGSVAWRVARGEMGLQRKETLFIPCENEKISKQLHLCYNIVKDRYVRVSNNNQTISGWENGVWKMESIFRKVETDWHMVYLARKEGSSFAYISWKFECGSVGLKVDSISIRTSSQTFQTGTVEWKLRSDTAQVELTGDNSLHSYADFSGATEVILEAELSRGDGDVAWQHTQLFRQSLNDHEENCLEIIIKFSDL

Chain of cysteines in MDA-MB-231 and Ramos cells (Homo sapiens, UniProt Q8WUM4) (Q8WUM4 whole entry, the tested form may be a part): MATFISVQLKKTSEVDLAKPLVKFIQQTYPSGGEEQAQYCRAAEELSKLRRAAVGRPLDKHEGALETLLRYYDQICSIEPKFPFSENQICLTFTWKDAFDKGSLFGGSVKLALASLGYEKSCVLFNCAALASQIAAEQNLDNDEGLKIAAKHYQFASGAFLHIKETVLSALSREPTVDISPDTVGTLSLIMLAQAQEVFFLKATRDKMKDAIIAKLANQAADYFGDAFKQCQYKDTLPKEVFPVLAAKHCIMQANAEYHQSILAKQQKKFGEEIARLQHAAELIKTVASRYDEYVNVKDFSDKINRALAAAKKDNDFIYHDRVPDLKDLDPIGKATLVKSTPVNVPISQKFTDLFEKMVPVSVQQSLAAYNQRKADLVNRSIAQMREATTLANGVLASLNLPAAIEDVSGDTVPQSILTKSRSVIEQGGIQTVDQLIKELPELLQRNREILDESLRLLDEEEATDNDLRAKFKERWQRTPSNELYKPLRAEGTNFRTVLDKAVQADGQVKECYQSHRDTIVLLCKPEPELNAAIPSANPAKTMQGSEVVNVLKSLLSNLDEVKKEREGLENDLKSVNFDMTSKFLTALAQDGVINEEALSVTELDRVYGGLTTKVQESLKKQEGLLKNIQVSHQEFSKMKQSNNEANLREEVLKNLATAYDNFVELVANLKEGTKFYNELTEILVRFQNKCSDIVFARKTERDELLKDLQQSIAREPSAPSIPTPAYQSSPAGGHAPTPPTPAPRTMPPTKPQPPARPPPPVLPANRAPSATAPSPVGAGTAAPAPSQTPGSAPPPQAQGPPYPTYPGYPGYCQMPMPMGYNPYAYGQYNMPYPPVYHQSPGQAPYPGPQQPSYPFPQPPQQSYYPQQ

reactivity profile of liganded cysteine Q8WUM4_C90 with fragment electrophile (isoTOP-ABPP ratio) [1]: 0.6
SMILES: CC(C)CCOCCNC(=O)CCl [compound 27]

isoTOP-ABPP ratio, cysteine Q8IV53_C174 [2]: 5.0
isoTOP-ABPP ratio, cysteine Q13867_C73 [3]: 4.2
SMILES: O=C(CCl)N1CCN(S(=O)(=O)c2ccccc2F)CC1 [compound 10]

isoTOP-ABPP ratio, Q86UV5_C39 [4]: 1.3
SMILES: C=CC(=O)N(Cc1cccnc1)c1cc(C(F)(F)F)cc(C(F)(F)F)c1 [compound 31]

reactivity profile of liganded cysteine Q96IV0_C309 with fragment electrophile (isoTOP-ABPP ratio) [5]: 3.0
SMILES: O=C(CCl)N1CCN(CC(=O)N2CCOCC2)CC1 [compound 29]
